Reference: patent US20230310333A1, “MESOPOROUS SILICA NANOPARTICLE CONTROLLED RELEASE SYSTEM, PREPARATION METHOD THEREFOR AND APPLICATION THEREOF” (East China University of Science and Technology, priority 2020, published 2023)

Experiments:
diabetic rats [1] = assay: glucose challenge 2.5 h after injection in diabetic rats (Example 38); assay type: in vivo, wistar rats; conditions: 4.1 IU subcutaneous in the neck, glucose 1.5 g/kg i.p. after 2.5 h, compared with normal group
Protocol: Male wistar rats of 4-6 weeks were selected and fed for two weeks. streptozotocin (STZ) was administered once in a dose of 180 mg/kg (administered according to the specific body weight of the rat). The STZ was weighed according to the weight of the rat, put in a sterilized bottle, then wrapped with tinfoil. The sodium citrate buffer solution and the STZ bottle were brought into the animal room under ice bath conditions. A sodium citrate buffer solution with a concentration of 1% STZ (1 g/100 ml) was prepared, and injected into the tail vein within 30 minutes to prevent inactivation. After injection of STZ, adequate drinking water and feed were given every day. Fasting blood sugar was measured on the 1st day, 7th day, and 10th day. If it was greater than 16.65 mmol/L, it was a stable diabetes model. 2 groups of diabetic rats and 1 group of normal rats (4 rats in each group) were taken. Diabetic rat groups were subcutaneously injected with (1) 2.0 mg M3-2 (4.1 IU) and (2) insulin (4.1 IU) in the neck respectively. After 2.5 h of injection, g lucose (1.5 g/kg) was intraperitoneally injected into rats in the diabetes group and the normal group, and the blood sugar was detected.

diabetic mice = assay: glucose challenge after patch or injection in diabetic mice (Example 41); assay type: in vivo, C57bl/6 mice; conditions: 12.0 IU/kg, glucose 1.5 g/kg i.p. after 2.5 h, compared with normal group
Protocol: 1.5 mg of M3-2 was added into 0.5 mL of ultrapure water, ultrasonically dispersed evenly. 0.25 g of hyaluronic acid (HA) was added, and stirred at room temperature until a homogeneous system was obtained to obtain an HA aqueous solution of M3-2, which was used as a pouring material of microneedle (Microneedles, MNs). 1 g of HA was added to 1 mL of ultrapure water and stirred at room temperature until clear and transparent to obtain a blank solution of HA, which was used as the base material of MNs. 50 μL HA aqueous solution of M3-2 was taken and added to the surface of the mold. […]
C57bl/6 mice (male, 4-6 weeks) were selected and fed adaptively for two weeks at room temperature of 24° C.±1° C., humidity of 55% for 12 h with bright cycle (8:00-20:00) with adequate water and feed. […] Fasting blood glucose was measured on the 3rd, 5th, 7th, 10th, and 21st days, and it was a stable diabetes model if it was greater than 16.65 mmol/L.
2 groups of diabetic mice and 1 group of normal mice (4 mice in each group) were taken. […] After 2.5 h of injection or patch, glucose (1.5 g/kg) was intraperitoneally injected into mice in the diabetes group and the normal group, and the blood sugar was detected.

diabetic rats [2] = assay: blood sugar of diabetic rats after subcutaneous injection (Example 37); assay type: in vivo, wistar rats; conditions: same dose (4.1 IU)
Protocol: Male wistar rats of 4-6 weeks were selected and fed for two weeks. streptozotocin (STZ) was administered once in a dose of 180 mg/kg (administered according to the specific body weight of the rat). The STZ was weighed according to the weight of the rat, put in a sterilized bottle, then wrapped with tinfoil. The sodium citrate buffer solution and the STZ bottle were brought into the animal room under ice bath conditions. A sodium citrate buffer solution with a concentration of 1% STZ (1 g/100 ml) was prepared, and injected into the tail vein within 30 minutes to prevent inactivation. After injection of STZ, adequate drinking water and feed were given every day. Fasting blood sugar was measured on the 1st day, 7th day, and 10th day. If it was greater than 16.65 mmol/L, it was a stable diabetes model. Diabetic rats were taken and divided into 4 groups (4 rats in each group). The group of diabetic rats were subcutaneously injected (1) 1.5 mg M3-2, (2) 2.0 mg M3-2 (4.1 IU), (3) 1.0 mL PBS buffer solution and (4) insulin (4.1 IU). Blood sugar in rats was monitored for a period of time after injection.

insulin
blood sugar regulation after intraperitoneal glucose (diabetic rats [1]): the blood sugar quickly returns to a higher blood sugar level
blood sugar regulation after intraperitoneal glucose (diabetic mice): the blood sugar quickly rises to a higher blood sugar level after glucose injection
duration of blood glucose at 100-200 mg/dL (diabetic rats [2]): 4.5 h
